Legend:
[1] = test system: circadian rhythm of hamster wheel running activity; assay: Phase shift of the circadian rhythm of hamster wheel running activity after intraperitoneal injection; assay type: in vivo, hamster (Mesocricetus auratus)
Procedure: A preliminary study was conducted to determine whether peripherally administered 6-methyl-5-oxo-3-thiomorpholinyl-carbonyl-L-histidyl-L-prolinamide (Montirelin) is capable of phase shifting the circadian rhythm of hamster wheel running activity. Twenty-four male hamsters [Mesocricetus auratus; 8-12 weeks of age; Charles River LAK:LVG(SYR)] were housed individually in cages equipped with running wheels, and food and water freely available. Animals were maintained in light-tight, ventilated cabinets (six cages per cabinet) in which the lighting schedule could be controlled. Each animal's wheel running activity was monitored continuously throughout each experiment using a data acquisition software kit (Chronobiology, Stanford, Calif.).
(§1) Animals were maintained initially in a 14:10 hour light:dark cycle for 7-10 days, then transferred to constant dim red lighting (RR) conditions for the remainder of the experiment (40-60 days). After free-running for 7 days in dim red lighting, animals either received Montirelin or vehicle intraperitoneally. The daily onset of wheel-running activity was defined as circadian time 12 (CT 12), and this time was used as a reference point in determining appropriate circadian injection times. The test animals were divided into eight groups of three animals each, and intraperitoneal injections of the active compound at dosage levels of 10 or 20 mg/kg or of the vehicle alone were administered to respective test groups at circadian time 3 (CT 3) or circadian time 16 (CT 16). The order of injections and time points was randomized. An additional 4 animals maintained in similar lighting conditions were visually observed for two hours post-injection of Montirelin (10 or 20 mg/kg) to determine any overt behavioral effects exerted by this compound. A total of 9 injections were made for each of the eight treatment groups.
Phase shifts in the circadian activity rhythm were determined by measuring the phase difference between eye-fitted lines connecting the onset of activity for a period of ten days before and ten days after an experimental manipulation.

Sprague-Dawley rats = assay: Subacute repeated-dose intravenous toxicity study with four-week recovery
Procedure: Eight nine SPF Slc:SD rats of both sexes (age: four weeks, body weight: 70.0-81.6 g) were purchased from Shizuoka Agriculture Cooperative Association for Laboratory Animals. During a one-week quarantine/acclimation period, the animals were measured for body weight and observed for any general symptoms, and healthy animals showing normal growth were selected and used in the experiment at the age of five weeks.
Males and females were used in five groups (including the control group) of 10 animals/sex, and additional 10 animals/sex ere added to the control, 0.5 mg/kg and 50 mg/kg groups to investigate the reversibility of the toxic effect of the test substance. All these animals were randomized to each group by weight stratification so that the differences in initial mean body weight were within 2% between groups.
This study also included the vehicle control group.
Dosing solutions were prepared by dissolving a weighed amount of the test substance in physiological saline at a concentration of 1 W/V % using a volumetric flask. Lower dosing solutions were obtained by successive 10-fold dilution of the initial solution. The respective dosing solution was repeatedly administered intravenously once daily for 35 days into the tail vein at a rate of 0.2 ml/10 sec. using a 1/4 syringe for injection. The treatment was given at a constant volume of 0.5 ml/100 g body weight in all dose groups, and the control group was treated with physiological saline at the same volume in the same manner.
Clinical signs in all animals were observed daily between two and four hours after dosing according to Irwin's method of comprehensive observational assessment, and the type, severity, onset time and disappearance time of toxic symptoms were recorded. During the recovery period, the clinical observation was performed once daily in the morning in the same manner. The body weight, food consumption and water consumption were measured in all animals three times weekly in the morning throughout the treatment and recovery periods and recorded.

hamsters = assay: Visual observation of overt behavior for two hours post-injection; assay type: in vivo, hamster (Mesocricetus auratus)
Procedure: as §1

[2] = 20 mg/kg i.p., at both CT 3 and CT 16, individual hamsters
[3] = both sexes, 50 mg/kg, within the range of normal physiological variations

Compound: CC1SCC(C(=O)N[C@@H](Cc2c[nH]cn2)C(=O)N2CCC[C@H]2C(N)=O)NC1=O (stereo partly drawn) [Montirelin, 6-methyl-5-oxo-3-thiomorpholinylcarbonyl-L-histidyl-L-prolinamide]
- Effects on the Phase of Wheel Running Activity, Group Averages ([1]; 10 mg/kg i.p. at CT 3): 4.3 ± 2.2 min
- Effects on the Phase of Wheel Running Activity, Group Averages ([1]; 10 mg/kg i.p. at CT 16): 3.5 ± 2.3 min
- Effects on the Phase of Wheel Running Activity, Group Averages ([1]; 20 mg/kg i.p. at CT 3): 5.5 ± 2.4 min
- Effects on the Phase of Wheel Running Activity, Group Averages ([1]; 20 mg/kg i.p. at CT 16): 3.1 ± 2.0 min
- phase advances in individual hamsters [1, 2]: ≈ 16 min.
- phase delays in individual hamsters [1, 2]: ≈ 10 min.
- clinical signs: polyuria (Sprague-Dawley rats; 5 mg/kg or higher groups, almost all males and females, peak about one hour after dosing day 0-3, disappearing by day 4-28): transient polyuria
- clinical signs: systemic tremor (Sprague-Dawley rats; 50 mg/kg group, both sexes, from day 0, disappearing by day 6 in males, day 4 in females): systemic tremor was observed transiently during the injection
- blood biochemical parameters (Sprague-Dawley rats; all treatment groups): No treatment-related abnormalities
- gross changes at autopsy (Sprague-Dawley rats; all treatment groups): no treatment-related grossly abnormal changes
- histopathology of other organs (light microscopy); liver and kidney (electron microscopy) (Sprague-Dawley rats; all treatment groups): no remarkable changes
- histopathology: hypertrophy of serous cells in the submaxillary gland (Sprague-Dawley rats; both sexes of all treatment groups): showed dose-dependency
- water consumption (Sprague-Dawley rats; both sexes receiving 5 mg/kg or above, day 2-3 until about week 4): increased
- red blood cell count, hemoglobin and hematocrit (Sprague-Dawley rats; [3]): increasing tendency
- total white blood cell count (Sprague-Dawley rats; [3]): decreasing tendency
- food consumption and body weight, females (Sprague-Dawley rats; females): unremarkable
- reversibility of observed changes (Sprague-Dawley rats; four-week recovery after discontinuing administration): All observed changes were reversed
- urinary findings (urine volume) (Sprague-Dawley rats; males and females receiving 5 mg/kg or above, week 2 and 5 of treatment): unremarkable except for an increase in urine volume
- body weight gain, males (Sprague-Dawley rats; males, particularly 0.5, 5 and 50 mg/kg): suppressed
- death (Sprague-Dawley rats; rats, i.v. once daily 35 days, 0.05-50 mg/kg/day, administration and recovery periods): no death occurred
- food consumption, males (Sprague-Dawley rats; treated males compared with control males): tended to decrease food consumption
- overt behavior versus vehicle (hamsters; 10 mg/kg i.p. at CTs 3 and 16): no differences in overt behavior
- overt behavior versus vehicle (hamsters; 20 mg/kg i.p. at both CT 3 and CT 16): clear differences in overt behaviors
